Results reported in patent US20240051935A1, “SUBSTITUTED PYRAZOLO PIPERIDINE CARBOXYLIC ACIDS” (BAYER AKTIENGESELLSCHAFT, priority 2020, published 2024).
Structures can show the parent of a compound that is named as a salt. Where two headings read alike, the source gives them in different places.

Key:
[1] = molecular target: T1, recombinant guanylate cyclase reporter cell line (Rattus norvegicus, UniProt P19686+P20595); assay: Effect on a recombinant guanylate cyclase reporter cell line; assay type: cell-based
T1 construct: expressed in transfected cells; host or cells: recombinant reporter cell line
T1 sequence (P20595 1-619): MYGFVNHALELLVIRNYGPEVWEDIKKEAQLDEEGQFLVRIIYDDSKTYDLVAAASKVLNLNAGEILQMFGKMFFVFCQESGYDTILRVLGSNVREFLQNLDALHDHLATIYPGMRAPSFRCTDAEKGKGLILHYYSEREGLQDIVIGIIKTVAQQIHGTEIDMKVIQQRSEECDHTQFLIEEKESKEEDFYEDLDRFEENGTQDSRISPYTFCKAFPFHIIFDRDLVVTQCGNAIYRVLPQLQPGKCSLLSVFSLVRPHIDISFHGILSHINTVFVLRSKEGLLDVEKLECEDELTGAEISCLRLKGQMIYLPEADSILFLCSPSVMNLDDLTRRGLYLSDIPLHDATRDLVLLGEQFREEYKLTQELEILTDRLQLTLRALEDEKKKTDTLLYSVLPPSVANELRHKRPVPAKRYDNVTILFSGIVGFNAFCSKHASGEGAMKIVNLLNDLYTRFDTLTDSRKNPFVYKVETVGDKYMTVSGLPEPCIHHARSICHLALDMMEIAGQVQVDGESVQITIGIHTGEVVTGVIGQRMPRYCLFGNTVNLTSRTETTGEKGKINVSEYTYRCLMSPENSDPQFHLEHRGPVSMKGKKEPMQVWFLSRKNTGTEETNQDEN
T1 sequence (P19686 1-690): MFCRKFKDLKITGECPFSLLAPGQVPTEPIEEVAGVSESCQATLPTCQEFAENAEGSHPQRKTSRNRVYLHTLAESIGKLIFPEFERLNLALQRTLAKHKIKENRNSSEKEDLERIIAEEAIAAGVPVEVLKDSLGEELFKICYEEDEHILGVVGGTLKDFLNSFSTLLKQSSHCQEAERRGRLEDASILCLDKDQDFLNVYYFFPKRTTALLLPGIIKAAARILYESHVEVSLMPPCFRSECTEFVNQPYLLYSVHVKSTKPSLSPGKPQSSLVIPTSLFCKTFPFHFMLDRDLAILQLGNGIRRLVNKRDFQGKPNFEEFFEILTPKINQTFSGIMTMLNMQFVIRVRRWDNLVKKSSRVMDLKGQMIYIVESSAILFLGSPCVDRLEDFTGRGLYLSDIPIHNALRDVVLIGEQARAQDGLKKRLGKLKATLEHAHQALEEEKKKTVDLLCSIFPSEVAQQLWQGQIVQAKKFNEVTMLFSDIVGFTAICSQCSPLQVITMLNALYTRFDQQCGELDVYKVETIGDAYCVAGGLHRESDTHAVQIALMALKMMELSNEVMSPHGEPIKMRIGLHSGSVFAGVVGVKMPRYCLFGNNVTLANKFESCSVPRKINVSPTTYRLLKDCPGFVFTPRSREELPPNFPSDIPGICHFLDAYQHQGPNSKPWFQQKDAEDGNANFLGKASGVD
Experimental: The cellular activity of the compounds according to the invention was determined using a recombinant guanylate cyclase reporter cell line, as described in F. Wunder et al., Anal. Biochem. 339, 104-112 (2005).

[2] = Pharmacokinetic parameters following intravenous and oral administration in rats; assay type: in vivo, male Wistar rats; settings: in rats as well as in dogs
Experimental: The pharmacokinetic parameters of the compounds according to the invention were determined in male Wistar rats and/or in female beagles and/or in cynomolgus monkeys and/or in male CD-1 mice. Intravenous administration in the case of mice and rats was carried out by means of a species-specific plasma/DMSO formulation, and in the case of dogs and monkeys by means of a water/PEG400/ethanol formulation. In all species, oral administration of the dissolved substance was performed via gavage, based on a water/PEG400/ethanol formulation.
An internal standard (which may also be a chemically unrelated substance) was added to the samples of the compounds of the invention, calibration samples and qualifiers, and there follows protein precipitation by means of acetonitrile in excess. […] The supernatant was analysed by LC-MS/MS using C18 reversed-phase columns and variable mobile phase mixtures. The substances were quantified via the peak heights or areas from extracted ion chromatograms of specific selected ion monitoring experiments.
The plasma concentration/time plots determined were used to calculate the pharmacokinetic parameters such as AUC,Cmax,t½ (terminal half-life), F (bioavailability), MRT (mean residence time) and CL (clearance), by means of a validated pharmacokinetic calculation program. […]

EC50 [1] [µM] | MEC (minimum effective concentration) [1] [nM] | lower plasma clearance (CLplasma) in comparison to example 174 in WO 2012/058132 [2] | MEC (minimum effective concentration) ([1]; hydrochloride) [nM] | SMILES
0.04 | 6.5 | – | – | CC(C)CN1CCN(c2ccc(-c3ccc(Cl)cc3N3CCCC(n4ncc(C(=O)O)c4C(F)(F)F)C3)cc2)CC1 (single isomer, unassigned) [Example 1, 1-[1-{4-Chloro-4′-[4-(2-methylpropyl)piperazin-1-yl][1,1′-biphenyl]-2-yl}piperidin-3-yl]-5-(trifluoromethyl)-1H-pyrazole-4-carboxylic acid]
0.011 | – | up to 10 times | 2.2 | CC(C)CN1CCN(c2ccc(-c3ccc(Cl)cc3N3CCCC(n4ncc(C(=O)O)c4C(F)(F)F)C3)cc2)CC1 (single isomer, unassigned) [Example 2, 1-[1-{4-chloro-4′-[4-(2-methylpropyl)piperazin-1-yl][1,1′-biphenyl]-2-yl}piperidin-3-yl]-5-(trifluoromethyl)-1H-pyrazole-4-carboxylic acid hydrochloride]
